Data: PMC12406258, “Uncovering the Unusual Inhibition Mechanism of a Trypanosome Alternative Oxidase Inhibitor Displaying Broad-Spectrum Activity against African Animal Trypanosomes” (Journal of Medicinal Chemistry, 2025)

Assays:
[1] = test system: T. equiperdum WT; assay: Resazurin-based drug sensitivity assay, T. equiperdum WT; format: cell-based; settings: Trypanosoma equiperdum
Experimental: Other Trypanosoma species used in this study include T. evansi AntTat 3/3 (Wild-type); and T. equiperdum BoTat 1 (Bordeaux trypanozoon antigenic type 1) P (wild-type). All the trypanosomes were used only as bloodstream trypomastigotes and cultured in the standard Hirumi’s Modified Iscove’s medium #9 (HMI-9), supplemented with 10% heat-inactivated Fetal Bovine Serum (FBS), 14 μL/L β-mercaptoethanol, and 3.0 g sodium hydrogen carbonate per liter of medium (pH 7.4). Trypanosomes were cultured in vented flasks at 37 °C in a 5% CO2 atmosphere.
Briefly, this protocol involves preparing a 96-well cell culture plate with a 100 μL serially diluted test compound (200 μM top concentration) in HMI-9 + 10% FBS (24 wells per control drug or test compound, with the 24th well serving as drug-free). This is followed by adjusting the cell density of mid-log-phase trypanosome cultures to the required concentration of 2 × 10^5 cells/mL (2 × 10^4 cells/well). […] All incubations were carried out at 37 °C with 5% CO2. […] EC50 values were calculated using GraphPad Prism 9.0 software via nonlinear regression with an equation for a sigmoidal dose–response curve with variable slope (GraphPad Software Inc., San Diego, CA, USA).

[2] = test system: T. b. brucei STIB795/luc; assay: In vivo STIB795 mouse model of T. b. brucei infection; settings: 5 mg/kg/day i.p. for 4 days
[3] = Microsomal stability, human liver microsomes; format: in vitro ADME; settings: both sexes, pH 7.4, 0.5 mg/mL microsomes, NADPH
Experimental: (§1) Pooled mixed gender human liver microsomes (HLMs) and Pooled CD1 mouse liver microsomes (female) were purchased from Tebubio. The NADPH regenerating system was purchased from Promega. All other reagents and solvents were of special or analytical grade and were commercially available. The assays were performed according to a reported protocol with small changes. […] The reactions were initiated by adding liver microsomes at a final concentration of 0.5 mg/mL in a total volume of 250 μL. […] The supernatants were analyzed with LC/MS for the amount of parent compound remaining, and the CLint and t 1/2 were determined.

[4] = target: T1, recombinant TAO (ΔMTS rTAO) (Trypanosoma brucei brucei, UniProt Q26710); assay: TAO inhibitory kinetics (Lineweaver–Burk / Dixon plots); format: biochemical, T. brucei
T1 construct: […]; SUMO (Small Ubiquitin-related Modifier) fusion from the expression system; made in house
T1 sequence (Q26710 26-329, stated change not applied): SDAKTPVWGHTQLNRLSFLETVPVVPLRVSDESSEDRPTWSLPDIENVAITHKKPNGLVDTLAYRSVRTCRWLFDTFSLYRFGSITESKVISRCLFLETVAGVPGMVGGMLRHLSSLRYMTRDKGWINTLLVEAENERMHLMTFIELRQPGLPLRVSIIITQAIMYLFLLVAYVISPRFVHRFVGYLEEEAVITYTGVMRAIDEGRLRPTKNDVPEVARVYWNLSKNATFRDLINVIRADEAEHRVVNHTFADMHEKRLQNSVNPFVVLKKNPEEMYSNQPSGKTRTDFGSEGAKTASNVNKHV
Experimental: To determine the type of inhibition with purified TAO, the kinetic assay was carried out in the presence of varying concentrations of 1 and substrate concentrations (Ubiquinol; Q1H2) (0–600 μM), with 250 ng TAO in a 1 mL (0.5 M Tris-HCl buffer, pH 7.3) reaction mix. The results were used to construct the Michaelis–Menten plot, which was then transformed to Lineweaver–Burk plots (Figure A).
The slopes of the Lineweaver–Burk primary plot were plotted against the varying concentrations of 1. K i = −(intercept over the X-axis) of the Dixon secondary plot.
(§2) As previously described, the Ubiquinol oxidase activity measurement was carried out using recombinant TAO lacking the mitochondrial targeting signal (ΔMTS). […] The reaction was carried out in a 1 cm cuvette for 2 min using a V-630 Jasco UV–vis spectrophotometer (Jasco Corporation, Tokyo, Japan). Briefly, the procedure involves preincubating 250 ng of the enzyme for 2 min in a 50 mM Tris-HCl (pH 7.3) buffer containing the detergent octaethylene glycol monododecylether (0.05% (w/v)) in a total reaction volume of 1 mL at 25 °C. […] For the inhibition reaction, 250 ng of the enzyme was preincubated with varying inhibitor concentrations for 2 min using the same buffer before the substrate was added. […] This was achieved using the same protocol but without TAO. […] The residual activities were plotted against the corresponding inhibitor concentration in a GraphPad Prism-9 software to obtain the IC50 value.

[5] = Microsomal stability, mouse liver microsomes; format: in vitro ADME; settings: female, CD1, mouse, pH 7.4, 0.5 mg/mL microsomes, NADPH
Experimental: as §1

[6] = target: T1, recombinant TAO (ΔMTS rTAO); assay: Inhibition of ubiquinol oxidase activity of purified recombinant TAO; format: biochemical, T. brucei
Experimental: This physiologically relevant rTAO enzyme was used throughout this work and in this experiment to study the inhibitory activity of 1.
as §2

## Cc1cc(O)ccc1C(=O)OCCCCCCCCCCCCCC[P+](c1ccccc1)(c1ccccc1)c1ccccn1.[Br-] [Compound 1, {14-[(4-Hydroxy-2-methylbenzoyl)-oxy]-tetradecyl}-diphenyl(pyridin-2-yl)-Phosphonium Bromide]
[1]
  EC50: 2.2 ± 0.2 nM
[2]
  In vivo efficacy (extension of lifespan): no in vivo efficacy
[3]; read-out: CLint,met in human microsomes
  microsomal CLint at 1 μM: 216 ± 2.3 µL/min/mg
[3]; read-out: t1/2 in human microsomes
  half-life at 1 μM: 6.2 min
[4]
  Ki: 3.46 nM
[4]; 5 nM inhibitor
  Vmax of TAO in the presence of inhibitor: 34.7 µmol/min/mg
[4]; 10 nM inhibitor
  Vmax of TAO in the presence of inhibitor: 21.4 µmol/min/mg
[4]; 15 nM inhibitor
  Vmax of TAO in the presence of inhibitor: 13.0 µmol/min/mg
[4]; Lineweaver–Burk plot
  Type of inhibition of TAO: noncompetitive
[5]; read-out: CLint,met in mouse microsomes
  microsomal CLint at 1 μM: 293 ± 19 µL/min/mg
[5]; read-out: t1/2 in mouse microsomes
  half-life at 1 μM: 4.6 min
[6]
  IC50: 1.3 ± 0.07 nM
